Assay results reported in PubChem BioAssay (NCI).
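Cultured in 96-well plates, cells were exposed to test compound for 48 hours across five concentrations. GI50 marks 50% less growth. Definition used: TGI = concentration required for complete inhibition of growth.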

Tests used:
Assay in all cases: inhibition of tumour cell growth, NCI panel, 48 h
SNB-75 CNS = tested on: SNB-75 CNS
EKVX NSCLC = tested on: EKVX NSCLC
HOP-92 NSCLC = tested on: HOP-92 NSCLC
SW-620 colon = tested on: SW-620 colon
MDA-MB-231 breast = tested on: MDA-MB-231 breast
T-47D breast = tested on: T-47D breast
CAKI-1 renal = tested on: CAKI-1 renal
NCI-H23 lung = tested on: NCI-H23 lung
A549 NSCLC = tested on: A549 NSCLC
LOX IMVI melanoma = tested on: LOX IMVI melanoma
PC-3 prostate = tested on: PC-3 prostate
HCT-15 colon = tested on: HCT-15 colon
HOP-62 NSCLC = tested on: HOP-62 NSCLC
COLO 205 colon = tested on: COLO 205 colon
SN12C renal = tested on: SN12C renal
CCRF-CEM leukemia = tested on: CCRF-CEM leukemia
SK-MEL-5 melanoma = tested on: SK-MEL-5 melanoma
ACHN renal = tested on: ACHN renal
KM12 colon = tested on: KM12 colon
OVCAR-8 ovarian = tested on: OVCAR-8 ovarian
OVCAR-4 ovarian = tested on: OVCAR-4 ovarian
UO-31 renal = tested on: UO-31 renal
SF-295 CNS = tested on: SF-295 CNS
IGROV1 ovarian = tested on: IGROV1 ovarian
RPMI-8226 leukemia = tested on: RPMI-8226 leukemia
MDA-MB-435 = tested on: MDA-MB-435
HS 578T breast = tested on: HS 578T breast
K-562 leukemia = tested on: K-562 leukemia
HCC-2998 colon = tested on: HCC-2998 colon
SK-MEL-28 melanoma = tested on: SK-MEL-28 melanoma
A498 renal = tested on: A498 renal
UACC-62 melanoma = tested on: UACC-62 melanoma
U251 CNS = tested on: U251 CNS
BT-549 breast = tested on: BT-549 breast
NCI-H226 lung = tested on: NCI-H226 lung
SF-539 CNS = tested on: SF-539 CNS
OVCAR-5 ovarian = tested on: OVCAR-5 ovarian
SK-MEL-2 melanoma = tested on: SK-MEL-2 melanoma
RXF 393 renal = tested on: RXF 393 renal
OVCAR-3 ovarian = tested on: OVCAR-3 ovarian
SNB-19 CNS = tested on: SNB-19 CNS
HL-60(TB) leukemia = tested on: HL-60(TB) leukemia
MALME-3M melanoma = tested on: MALME-3M melanoma
TK-10 renal = tested on: TK-10 renal
MOLT-4 leukemia = tested on: MOLT-4 leukemia
SK-OV-3 ovarian = tested on: SK-OV-3 ovarian
M14 melanoma = tested on: M14 melanoma
786-0 renal = tested on: 786-0 renal
HCT-116 colon = tested on: HCT-116 colon
HT29 colon = tested on: HT29 colon
NCI/ADR-RES ovarian = tested on: NCI/ADR-RES ovarian
UACC-257 melanoma = tested on: UACC-257 melanoma
SF-268 CNS = tested on: SF-268 CNS
DU-145 prostate = tested on: DU-145 prostate

COc1ccc(/C=N/NC2=NC3C(S2)N(C)C(=O)N3C)cc1 (configuration not stated)
GI50 (SNB-75 CNS): 1.75 µM | TGI (SNB-75 CNS): 6.26 µM | GI50 (EKVX NSCLC): 8.03 µM | TGI (EKVX NSCLC): > 100 µM | GI50 (HOP-92 NSCLC): 9.44 µM | TGI (HOP-92 NSCLC): > 100 µM | GI50 (SW-620 colon): 3.32 µM | TGI (SW-620 colon): > 100 µM | GI50 (MDA-MB-231 breast): 6.09 µM | TGI (MDA-MB-231 breast): 45.2 µM | GI50 (T-47D breast): 4.5 µM | TGI (T-47D breast): > 100 µM | GI50 (CAKI-1 renal): 3.76 µM | TGI (CAKI-1 renal): > 100 µM | GI50 (NCI-H23 lung): 5.05 µM | TGI (NCI-H23 lung): > 100 µM | GI50 (A549 NSCLC): 5.83 µM | TGI (A549 NSCLC): > 100 µM | GI50 (LOX IMVI melanoma): 3.79 µM | TGI (LOX IMVI melanoma): > 100 µM | GI50 (PC-3 prostate): 4.76 µM | TGI (PC-3 prostate): > 100 µM | GI50 (HCT-15 colon): 3.48 µM | TGI (HCT-15 colon): > 100 µM | GI50 (HOP-62 NSCLC): 4.12 µM | TGI (HOP-62 NSCLC): > 100 µM | GI50 (COLO 205 colon): 4.25 µM | TGI (COLO 205 colon): 25 µM | GI50 (SN12C renal): 4.17 µM | TGI (SN12C renal): > 100 µM | GI50 (CCRF-CEM leukemia): 3.61 µM | TGI (CCRF-CEM leukemia): > 100 µM | GI50 (SK-MEL-5 melanoma): 2.95 µM | TGI (SK-MEL-5 melanoma): 10.6 µM | GI50 (ACHN renal): 5.27 µM | TGI (ACHN renal): > 100 µM | GI50 (KM12 colon): 4.73 µM | TGI (KM12 colon): > 100 µM | GI50 (OVCAR-8 ovarian): 7.65 µM | TGI (OVCAR-8 ovarian): > 100 µM | GI50 (OVCAR-4 ovarian): 7.95 µM | TGI (OVCAR-4 ovarian): > 100 µM | GI50 (UO-31 renal): 3.16 µM | TGI (UO-31 renal): > 100 µM | GI50 (SF-295 CNS): 2.97 µM | TGI (SF-295 CNS): 12.7 µM | GI50 (IGROV1 ovarian): 4.72 µM | TGI (IGROV1 ovarian): > 100 µM | GI50 (RPMI-8226 leukemia): 5 µM | TGI (RPMI-8226 leukemia): > 100 µM | GI50 (MDA-MB-435): 1.6 µM | TGI (MDA-MB-435): 3.92 µM | GI50 (HS 578T breast): 2.51 µM | TGI (HS 578T breast): 7.53 µM | GI50 (K-562 leukemia): 3.12 µM | TGI (K-562 leukemia): > 100 µM | GI50 (HCC-2998 colon): 6.91 µM | TGI (HCC-2998 colon): 36 µM | GI50 (SK-MEL-28 melanoma): 7.7 µM | TGI (SK-MEL-28 melanoma): > 100 µM | GI50 (A498 renal): 5.73 µM | TGI (A498 renal): 87 µM | GI50 (UACC-62 melanoma): 2.97 µM | TGI (UACC-62 melanoma): 37.1 µM | GI50 (U251 CNS): 3.78 µM | TGI (U251 CNS): > 100 µM | GI50 (BT-549 breast): 2.71 µM | TGI (BT-549 breast): 14.2 µM | GI50 (NCI-H226 lung): 4.58 µM | TGI (NCI-H226 lung): > 100 µM | GI50 (SF-539 CNS): 3.03 µM | TGI (SF-539 CNS): 12.3 µM | GI50 (OVCAR-5 ovarian): 7.96 µM | TGI (OVCAR-5 ovarian): > 100 µM | GI50 (SK-MEL-2 melanoma): 1.04 µM | TGI (SK-MEL-2 melanoma): 3.52 µM | GI50 (RXF 393 renal): 1.99 µM | TGI (RXF 393 renal): 5.05 µM | GI50 (OVCAR-3 ovarian): 2.82 µM | TGI (OVCAR-3 ovarian): 7.95 µM | GI50 (SNB-19 CNS): 4.12 µM | TGI (SNB-19 CNS): > 100 µM | GI50 (HL-60(TB) leukemia): 2.51 µM | TGI (HL-60(TB) leukemia): 5.55 µM | GI50 (MALME-3M melanoma): 3.7 µM | TGI (MALME-3M melanoma): > 100 µM | TGI (TK-10 renal): 40.9 µM | GI50 (MOLT-4 leukemia): 3.58 µM | TGI (MOLT-4 leukemia): > 100 µM | GI50 (SK-OV-3 ovarian): 4.27 µM | TGI (SK-OV-3 ovarian): > 100 µM | GI50 (M14 melanoma): 4 µM | TGI (M14 melanoma): 64.1 µM | GI50 (786-0 renal): 4.89 µM | TGI (786-0 renal): > 100 µM | GI50 (HCT-116 colon): 4.67 µM | TGI (HCT-116 colon): > 100 µM | GI50 (HT29 colon): 2.15 µM | TGI (HT29 colon): 5.1 µM | GI50 (NCI/ADR-RES ovarian): 3.8 µM | TGI (NCI/ADR-RES ovarian): 27.4 µM | GI50 (UACC-257 melanoma): 5.01 µM | TGI (UACC-257 melanoma): > 100 µM | GI50 (SF-268 CNS): 5.37 µM | TGI (SF-268 CNS): > 100 µM | GI50 (DU-145 prostate): 9.89 µM | TGI (DU-145 prostate): > 100 µM
